Experimental data taken from ChEMBL document CHEMBL1201862, “PubChem BioAssay data set” (2004).
Activity calls are given as the source filed them.

Key:
[1] = Dd2 parasite growth inhibition in erythrocytes – SYBR Green, dry powder samples, set 9, dose response (AID 1159568); type: functional, cell-based
[2] = molecular target: Serine/threonine-protein phosphatase PP1-alpha catalytic subunit (Homo sapiens, UniProt P62136); experiment: inhibition of protein phosphatase 1 activity – biochemical, fluorescence, dose response (AID 2394)
Serine/threonine-protein phosphatase PP1-alpha catalytic subunit, sequence (P62136 whole entry): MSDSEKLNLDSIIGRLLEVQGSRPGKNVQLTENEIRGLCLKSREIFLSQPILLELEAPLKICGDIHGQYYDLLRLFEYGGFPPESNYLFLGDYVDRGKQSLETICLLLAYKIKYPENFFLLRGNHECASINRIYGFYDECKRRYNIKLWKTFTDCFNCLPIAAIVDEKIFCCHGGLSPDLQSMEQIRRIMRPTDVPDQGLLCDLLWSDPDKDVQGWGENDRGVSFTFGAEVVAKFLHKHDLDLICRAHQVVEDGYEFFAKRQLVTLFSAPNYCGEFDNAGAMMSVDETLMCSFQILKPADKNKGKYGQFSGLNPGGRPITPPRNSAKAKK

[3] = molecular target: Serine/threonine-protein phosphatase (Homo sapiens, UniProt Q9BPW0); experiment: inhibition of protein phosphatase 5 activity – biochemical, fluorescence, dose response (AID 2395)
Serine/threonine-protein phosphatase, sequence (Q9BPW0 whole entry): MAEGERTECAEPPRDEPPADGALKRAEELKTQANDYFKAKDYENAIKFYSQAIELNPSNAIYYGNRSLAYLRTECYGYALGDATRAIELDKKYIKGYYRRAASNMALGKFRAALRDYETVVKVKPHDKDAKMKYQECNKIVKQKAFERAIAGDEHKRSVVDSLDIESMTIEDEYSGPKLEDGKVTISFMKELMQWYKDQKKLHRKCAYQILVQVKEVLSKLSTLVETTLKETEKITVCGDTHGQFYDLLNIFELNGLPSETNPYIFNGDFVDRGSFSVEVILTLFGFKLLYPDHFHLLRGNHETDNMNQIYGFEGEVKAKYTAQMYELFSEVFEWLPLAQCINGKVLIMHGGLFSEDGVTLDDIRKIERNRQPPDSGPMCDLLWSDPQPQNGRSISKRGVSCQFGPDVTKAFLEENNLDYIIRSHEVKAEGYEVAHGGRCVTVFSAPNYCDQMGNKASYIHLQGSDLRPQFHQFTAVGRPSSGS

[4] = A High Throughput Confirmatory Assay used to Identify Novel Compounds that Inhibit Mycobacterium Tuberculosis in the absence of Glycerol.; type: functional
[5] = HPDE-C7 pancreatic duct cell viability loss – fluorescence, HTS (AID 430); type: functional, cell-based; conditions: Homo sapiens
[6] = viability loss of HPDE-C7K cells – cell-based, fluorescence, HTS, primary screen (AID 431); type: functional; conditions: Homo sapiens
NADPH oxidase 1 = NADPH oxidase 1 (Homo sapiens, UniProt Q9Y5S8); type: functional, cell-based;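 note: Cell-based assay with luminescence read-out, IC50 derived from inhibitor dose-response curves; intracellular ROS from endogenous NOX1 in intact HT29 colon cancer cells; potency of inhibitors that lower the ROS luminescence signal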
NADPH oxidase 1, sequence (Q9Y5S8 whole entry): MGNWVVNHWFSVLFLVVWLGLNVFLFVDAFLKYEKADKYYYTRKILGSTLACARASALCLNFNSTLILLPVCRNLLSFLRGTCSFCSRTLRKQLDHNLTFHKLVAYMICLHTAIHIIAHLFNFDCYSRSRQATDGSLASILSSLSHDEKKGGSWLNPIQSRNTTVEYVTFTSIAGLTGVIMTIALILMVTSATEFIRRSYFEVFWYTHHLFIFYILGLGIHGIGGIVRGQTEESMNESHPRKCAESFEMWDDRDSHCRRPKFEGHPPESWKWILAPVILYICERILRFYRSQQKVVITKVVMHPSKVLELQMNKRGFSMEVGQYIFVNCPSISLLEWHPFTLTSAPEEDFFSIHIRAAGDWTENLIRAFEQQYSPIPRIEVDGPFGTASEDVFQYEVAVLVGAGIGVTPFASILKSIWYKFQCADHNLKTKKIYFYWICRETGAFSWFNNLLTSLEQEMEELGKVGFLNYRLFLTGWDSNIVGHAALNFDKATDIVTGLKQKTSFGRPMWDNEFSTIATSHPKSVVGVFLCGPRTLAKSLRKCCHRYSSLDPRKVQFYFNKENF

Genome polyprotein = Genome polyprotein (Hepatitis C virus, UniProt Q2Q167); experiment: disruption of hepatitis C core self-association – biochemical, TR-FRET, dose response (AID 2159); design: species or system Hepacivirus hominis;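 note: blocks dimerization of HCV core protein measured by TR-FRET between tagged core106 pairs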
Genome polyprotein, sequence (Q2Q167 whole entry): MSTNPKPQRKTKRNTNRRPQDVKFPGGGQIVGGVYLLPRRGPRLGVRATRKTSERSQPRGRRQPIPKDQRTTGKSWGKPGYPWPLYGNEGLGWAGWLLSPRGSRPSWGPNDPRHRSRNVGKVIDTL

[7] = molecular target: DNA dC->dU-editing enzyme APOBEC-3G (Homo sapiens, UniProt Q9HC16); experiment: Dose Response confirmation of small molecule APOBEC3G DNA Deaminase Inhibitors via a fluorescence-based single-stranded DNA deaminase assay. [Related pubchem assays (depositor defined):AID493012, AID493028]; type: functional
DNA dC->dU-editing enzyme APOBEC-3G, sequence (Q9HC16 whole entry): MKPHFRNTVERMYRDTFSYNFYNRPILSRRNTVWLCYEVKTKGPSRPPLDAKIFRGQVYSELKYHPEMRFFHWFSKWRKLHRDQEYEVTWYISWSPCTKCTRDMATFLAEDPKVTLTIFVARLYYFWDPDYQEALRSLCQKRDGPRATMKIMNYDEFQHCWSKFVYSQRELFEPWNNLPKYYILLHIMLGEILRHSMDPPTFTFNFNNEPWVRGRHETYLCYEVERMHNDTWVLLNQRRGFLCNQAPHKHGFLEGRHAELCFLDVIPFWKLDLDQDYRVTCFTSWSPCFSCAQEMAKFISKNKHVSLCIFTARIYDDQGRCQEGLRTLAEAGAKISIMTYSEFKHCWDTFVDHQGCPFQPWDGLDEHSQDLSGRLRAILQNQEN

[8] = rise of 2N DNA cells, HeLa – IC50, dose response (AID 1117349); type: functional, cell-based
[9] = rise of 4N DNA cells, HeLa – IC50, dose response (AID 1117351); type: functional, cell-based
[10] = molecular target: Aryl hydrocarbon receptor (Homo sapiens, UniProt P35869); experiment: Luminescence-based cell-based high throughput dose response assay for activators of the Aryl Hydrocarbon Receptor (AHR). [Related pubchem assays: 2796 (Primary screen (AHR activators in singlicate)), 2845 (Confirmation screen (AHR activators in triplicate)), 434939 (Counterscreen (PXR activators in triplicate)), 2804 (Summary (AHR activators))]; type: ADME
Aryl hydrocarbon receptor, sequence (P35869 whole entry): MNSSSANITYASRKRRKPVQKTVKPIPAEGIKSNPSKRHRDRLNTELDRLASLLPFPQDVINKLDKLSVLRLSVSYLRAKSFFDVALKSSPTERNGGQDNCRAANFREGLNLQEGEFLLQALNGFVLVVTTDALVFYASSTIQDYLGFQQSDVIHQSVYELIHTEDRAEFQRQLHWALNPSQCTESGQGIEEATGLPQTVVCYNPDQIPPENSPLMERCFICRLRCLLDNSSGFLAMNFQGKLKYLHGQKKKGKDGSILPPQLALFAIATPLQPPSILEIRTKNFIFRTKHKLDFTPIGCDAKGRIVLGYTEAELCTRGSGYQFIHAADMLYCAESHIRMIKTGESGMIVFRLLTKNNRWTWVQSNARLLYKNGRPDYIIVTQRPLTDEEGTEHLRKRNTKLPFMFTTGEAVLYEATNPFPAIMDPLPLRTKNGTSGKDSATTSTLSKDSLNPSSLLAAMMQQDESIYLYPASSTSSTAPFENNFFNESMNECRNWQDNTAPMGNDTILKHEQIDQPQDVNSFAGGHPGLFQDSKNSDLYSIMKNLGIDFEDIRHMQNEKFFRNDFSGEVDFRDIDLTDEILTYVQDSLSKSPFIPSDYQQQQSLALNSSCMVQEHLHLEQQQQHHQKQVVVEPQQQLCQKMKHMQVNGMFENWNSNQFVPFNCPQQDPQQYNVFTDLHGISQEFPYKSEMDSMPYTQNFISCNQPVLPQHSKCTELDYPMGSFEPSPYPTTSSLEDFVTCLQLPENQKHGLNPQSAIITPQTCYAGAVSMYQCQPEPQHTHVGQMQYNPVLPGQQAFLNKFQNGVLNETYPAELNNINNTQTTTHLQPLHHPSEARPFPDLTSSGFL

[11] = molecular target: Fructose-bisphosphate aldolase (Mycobacterium tuberculosis, UniProt P9WQA3); experiment: Fluorescence-based biochemical high throughput dose response assay for inhibitors of the fructose-bisphosphate aldolase (FBA) of M. tuberculosis.; type: functional
Fructose-bisphosphate aldolase, sequence (P9WQA3 whole entry): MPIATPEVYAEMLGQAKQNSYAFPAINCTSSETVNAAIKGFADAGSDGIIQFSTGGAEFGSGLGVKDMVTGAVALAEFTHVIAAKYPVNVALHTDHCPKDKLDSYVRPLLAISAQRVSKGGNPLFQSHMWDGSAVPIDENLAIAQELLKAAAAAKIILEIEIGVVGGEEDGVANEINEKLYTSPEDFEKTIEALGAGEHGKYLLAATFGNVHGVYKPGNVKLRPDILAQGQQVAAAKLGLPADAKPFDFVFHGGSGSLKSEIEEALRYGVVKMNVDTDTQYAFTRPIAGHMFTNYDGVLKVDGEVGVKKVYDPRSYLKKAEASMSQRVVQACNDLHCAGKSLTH

## C[C@@H]1CCCCO[C@H](CN(C)S(=O)(=O)c2ccc(F)cc2)[C@H](C)CN([C@@H](C)CO)C(=O)c2cc(N(C)C)ccc2O1
[1]
  AC50: 5.44 µM (active)

## COC(=O)CCC(=O)OC1(C)C(=O)C=C2C=C(C3CC3)N(C3CCCC3)C=C2C1=O (centres undefined)
[2]
  IC50: > 67 µM (not active)
[3]
  IC50: 11 µM (not active)

## COCCOC(=O)c1ccc(NC(=O)COc2ccc([N+](=O)[O-])cc2)cc1
[4]
  IC50: > 100 µM (active)

## O=S(=O)(CC(CN1CCCC1)N1CCCC1)c1ccc2ccccc2c1 (centres undefined)
[5]
  EC50: 2.04 µM (active)
[6]
  EC50: 2.38 µM (active)

## Cc1ccc(S(=O)(=O)c2ccc3c(c2)Sc2ccc(Cl)cc2N3)cc1
NADPH oxidase 1
  IC50: 5.25 µM (active)

## O=C1c2c(O)cccc2Cc2cccc(O)c21 [ANTHRALIN]
Genome polyprotein
  IC50: > 49.8 µM (not active)
[7]
  IC50: > 100 µM (inactive)
[8]
  IC50: > 10 µM (inactive)
[9]
  IC50: > 10 µM (inactive)

## O=C(Nc1ccon1)c1cnc2sccn2c1=O
[10]
  EC50: 1.85 µM (active)
[11]
  IC50: 4.61 µM (active)

## Clc1ccccc1-c1nc(-c2ccccc2)c(-c2ccccc2)[nH]1
NADPH oxidase 1
  IC50: > 17 µM (not active)
